Assay results taken from PMC10387993, “New pyrimidine-N-β-D-glucosides: synthesis, biological evaluation, and molecular docking investigations” (Turkish Journal of Chemistry, 2023).
In brackets after ≈: the same amount, converted by molar mass.

Experiments:
Format in all cases: cell-based
[1] = test system: E. faecalis VRE ATCC 19433; experiment: Microdilution MIC assay; conditions: Enterococcus faecalis; E. faecalis VRE ATCC 19433, 24 h at 35 °C
In short: (§1)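 Read-out is visual: absence of turbidity after 24 h at 35 °C defines the MIC, the lowest such concentration in a microwell dilution series.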

E. coli ESBL ATCC 35218 = experiment: Microdilution MIC assay; conditions: Escherichia coli, ATCC35218; E. coli ESBL ATCC 35218, 24 h at 35 °C
In short: as §1

S. gordonii NCTC 7870 = experiment: Microdilution MIC assay; conditions: Streptococcus gordonii, NCTC7870; S. gordonii NCTC 7870, 24 h at 35 °C
In short: as §1

[2] = test system: S. aureus MRSA ATCC 46300; experiment: Microdilution MIC assay; conditions: Staphylococcus aureus; S. aureus MRSA ATCC 46300, 24 h at 35 °C; read-out: MIC
In short: as §1

E. coli ATCC 25922 = experiment: Microdilution MIC assay; conditions: Escherichia coli, ATCC25922; E. coli ATCC 25922, 24 h at 35 °C
In short: as §1

S. aureus ATCC 25923 = experiment: Microdilution MIC assay; conditions: Staphylococcus aureus, ATCC25923, 24 h, S. aureus ATCC 25923, 24 h at 35 °C; read-out: MIC
In short: as §1

[3] = LDH cytotoxic activity assay, HeLa; conditions: human, HeLa cells
In short: (§2)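 Cells grown in DMEM or RPMI 1640 with 10% FBS were seeded at about 5 × 10^3 per well in triplicate. They were exposed to 25, 50, 75 and 100 μg/mL compound for 24 h at 37 °C, 5% CO2, and LDH release was measured by absorbance at 492–630 nm.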

[4] = LDH cytotoxic activity assay, C6; conditions: rat, C6 glioma cells; for cytotoxicity at 24 h, 25 μg/mL: C6, 25 μg/mL; for cytotoxicity at 24 h, 50 μg/mL: C6, 50 μg/mL; for cytotoxicity at 24 h, 75 μg/mL: C6, 75 μg/mL; for cytotoxicity at 24 h, 100 μg/mL: C6, 100 μg/mL
In short: as §2

[5] = LDH cytotoxic activity assay, HT29; conditions: human, HT29 cells; for cytotoxicity at 24 h, 25 μg/mL: HT29, 25 μg/mL; for cytotoxicity at 24 h, 50 μg/mL: HT29, 50 μg/mL; for cytotoxicity at 24 h, 75 μg/mL: HT29, 75 μg/mL; for cytotoxicity at 24 h, 100 μg/mL: HT29, 100 μg/mL
In short: as §2

MCF7 = experiment: cells; conditions: Homo sapiens; for LC50 (concentration causing 50% net cell loss relative to time zero): MCF7, read-out: LC50; for GI50 / IC50 / IC (total growth inhibition): MCF7, MTT; for IC50: read-out: IC50; for IC (total growth inhibition): read-out: TGI
In short: (§3)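 Seed ~1 × 10^4 cells/well; final 200 μL. Add MTT in phenol-red-free RPMI 1640, 4 h. Solubilise formazan in DMSO + Sorenson's buffer, 30 min RT. Read 560/690 nm. ≥3 repeats.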

A549 = experiment: cells; conditions: Homo sapiens; for LC50 (concentration causing 50% net cell loss): A549, read-out: LC50; for GI50 / IC50 / IC (total growth inhibition): A549, MTT; for IC50: read-out: IC50; for IC (total growth inhibition): read-out: TGI
In short: as §3

HT29 = experiment: cells; conditions: Homo sapiens; for LC50 (concentration giving 50% net cell loss relative to time zero): HT-29, read-out: LC50; for GI50 / IC50 / IC (total growth inhibition): HT-29, HT29, MTT; for IC50: read-out: IC50; for IC (total growth inhibition): read-out: TGI
In short: as §3

Hep3B = experiment: cells; conditions: Homo sapiens; for GI50 / IC50 / IC (total growth inhibition): MTT; for IC50: read-out: IC50; for IC (total growth inhibition): read-out: TGI; for LC50 (concentration causing 50% net cell loss relative to time zero): read-out: LC50
In short: as §3

HeLa = experiment: cells; conditions: Homo sapiens; for GI50 / IC50 / IC (total growth inhibition): MTT; for IC50: read-out: IC50; for IC (total growth inhibition): read-out: TGI; for LC50 (concentration causing 50% net cell loss): read-out: LC50
In short: as §3

C6 (Rat brain glioma) = experiment: cells; conditions: Rattus norvegicus; for LC50 (concentration giving 50% net cell loss relative to time zero): read-out: LC50; for GI50 / IC50 / IC (total growth inhibition): C6, MTT; for IC50: read-out: IC50; for IC (total growth inhibition): read-out: TGI
In short: as §3

normal FL cells = experiment: cells; conditions: FL normal cells, MTT; for IC50: read-out: IC50; for IC (total growth inhibition): read-out: TGI
In short: as §3

in vitro = conditions: human, LC50
In short: as §3

## CC(=O)OC[C@H]1O[C@@H](Nc2nc(-c3ccncc3)cc(-c3cccc(C)c3)n2)[C@H](OC(C)=O)[C@@H](OC(C)=O)[C@@H]1OC(C)=O [Compound 15, 2,3,4,6-tetra-O-acetyl-N-[4-(3-methylphenyl)-6-pyridin-4-ylpyrimidin-2-yl]-β-D-glucopyranosylamine]
[1]
  MIC: 1000 µg/mL (≈ 1690 µM)
E. coli ESBL ATCC 35218
  MIC: > 1000 µg/mL
S. gordonii NCTC 7870
  MIC: > 1000 µg/mL
[2]
  MIC: 250 µg/mL (≈ 422 µM)
E. coli ATCC 25922
  MIC: > 1000 µg/mL
S. aureus ATCC 25923
  MIC: 500 µg/mL (≈ 844 µM)
[3]
  cytotoxicity at 24 h, 25 μg/mL: 18.4%
  cytotoxicity at 24 h, 50 μg/mL: 31.7%
  cytotoxicity at 24 h, 75 μg/mL: 37.1%
  cytotoxicity at 24 h, 100 μg/mL: 56%
[4]
  cytotoxicity at 24 h, 25 μg/mL: 20.4%
  cytotoxicity at 24 h, 50 μg/mL: 55%
  cytotoxicity at 24 h, 75 μg/mL: 77.1%
  cytotoxicity at 24 h, 100 μg/mL: 83.3%
[5]
  cytotoxicity at 24 h, 25 μg/mL: 23.8%
  cytotoxicity at 24 h, 50 μg/mL: 45%
  cytotoxicity at 24 h, 75 μg/mL: 62.6%
  cytotoxicity at 24 h, 100 μg/mL: 78.6%
MCF7
  LC50 (concentration causing 50% net cell loss relative to time zero): > 500 µg/mL
  GI50: 4.1 µg/mL (≈ 6.92 µM)
  IC50: > 500 µg/mL
  IC (total growth inhibition): > 500 µg/mL
A549
  LC50 (concentration causing 50% net cell loss): > 500 µg/mL
  GI50: > 500 µg/mL
  IC50: > 500 µg/mL
  IC (total growth inhibition): > 500 µg/mL
HT29
  LC50 (concentration giving 50% net cell loss relative to time zero): > 500 µg/mL
  GI50: 5 µg/mL (≈ 8.44 µM)
  IC50: > 500 µg/mL
  IC (total growth inhibition): > 500 µg/mL
Hep3B
  GI50: 5.55 µg/mL (≈ 9.37 µM)
  IC50: > 500 µg/mL
  IC (total growth inhibition): > 500 µg/mL
  LC50 (concentration causing 50% net cell loss relative to time zero): > 500 µg/mL
HeLa
  GI50: > 500 µg/mL
  IC50: > 500 µg/mL
  IC (total growth inhibition): > 500 µg/mL
  LC50 (concentration causing 50% net cell loss): > 500 µg/mL
C6 (Rat brain glioma)
  LC50 (concentration giving 50% net cell loss relative to time zero): 71.2 µg/mL (≈ 120 µM)
  GI50: 2.21 µg/mL (≈ 3.73 µM)
  IC50: 11.2 µg/mL (≈ 19 µM)
  IC (total growth inhibition): 6.3 µg/mL
Normal FL cells
  GI50: 26.7 µg/mL (≈ 45 µM)
  IC50: > 500 µg/mL
  IC (total growth inhibition): > 500 µg/mL
In vitro
  LC50 (concentration causing 50% net cell loss): > 500 µg/mL

## Cc1ccccc1-c1cc(-c2ccccn2)nc(N[C@@H]2O[C@H](CO)[C@@H](O)[C@H](O)[C@H]2O)n1 [Compound 1, N-[4-(2-methylphenyl)-6-pyridin-2-ylpyrimidin-2-yl]-β-D-glucopyranosylamine]
[1]
  MIC: > 1000 µg/mL
E. coli ESBL ATCC 35218
  MIC: > 1000 µg/mL
S. gordonii NCTC 7870
  MIC: 250 µg/mL (≈ 589 µM)
[2]
  MIC: 1000 µg/mL (≈ 2360 µM)
E. coli ATCC 25922
  MIC: > 1000 µg/mL
S. aureus ATCC 25923
  MIC: 500 µg/mL (≈ 1180 µM)
[3]
  cytotoxicity at 24 h, 25 μg/mL: 30.2%
  cytotoxicity at 24 h, 50 μg/mL: 47%
  cytotoxicity at 24 h, 75 μg/mL: 65.3%
  cytotoxicity at 24 h, 100 μg/mL: 88.7%
[4]
  cytotoxicity at 24 h, 25 μg/mL: 28.7%
  cytotoxicity at 24 h, 50 μg/mL: 28.7%
  cytotoxicity at 24 h, 75 μg/mL: 72.1%
  cytotoxicity at 24 h, 100 μg/mL: 97.8%
[5]
  cytotoxicity at 24 h, 25 μg/mL: 29.3%
  cytotoxicity at 24 h, 50 μg/mL: 48%
  cytotoxicity at 24 h, 75 μg/mL: 68.9%
  cytotoxicity at 24 h, 100 μg/mL: 83.7%
MCF7
  LC50 (concentration causing 50% net cell loss relative to time zero): > 500 µg/mL
  GI50: 1.81 µg/mL (≈ 4.26 µM)
  IC50: > 500 µg/mL
  IC (total growth inhibition): > 500 µg/mL
A549
  LC50 (concentration causing 50% net cell loss): > 500 µg/mL
  GI50: 67.8 µg/mL (≈ 160 µM)
  IC50: > 500 µg/mL
  IC (total growth inhibition): > 500 µg/mL
HT29
  LC50 (concentration giving 50% net cell loss relative to time zero): > 500 µg/mL
  GI50: 3.41 µg/mL (≈ 8.03 µM)
  IC50: 198 µg/mL (≈ 466 µM)
  IC (total growth inhibition): > 500 µg/mL
Hep3B
  GI50: 5.38 µg/mL (≈ 12.7 µM)
  IC50: > 500 µg/mL
  IC (total growth inhibition): > 500 µg/mL
  LC50 (concentration causing 50% net cell loss relative to time zero): > 500 µg/mL
HeLa
  GI50: 10.5 µg/mL (≈ 24.8 µM)
  IC50: 54.4 µg/mL (≈ 128 µM)
  IC (total growth inhibition): 35.1 µg/mL
  LC50 (concentration causing 50% net cell loss): 218 µg/mL (≈ 514 µM)
C6 (Rat brain glioma)
  LC50 (concentration giving 50% net cell loss relative to time zero): 245 µg/mL (≈ 578 µM)
  GI50: 6.34 µg/mL (≈ 14.9 µM)
  IC50: 41.2 µg/mL (≈ 97.1 µM)
  IC (total growth inhibition): 24.3 µg/mL
Normal FL cells
  GI50: 3.1 µg/mL (≈ 7.3 µM)
  IC50: 77.4 µg/mL (≈ 182 µM)
  IC (total growth inhibition): 81.6 µg/mL
In vitro
  LC50 (concentration causing 50% net cell loss): > 500 µg/mL
